Experimental data published in US12527739B2 (Alcon Inc., priority 2022, dated 2026).

How the values were obtained:
[1] = Solubility of benzyl atropine in surfactants (single excipients); format: physicochemical
Method: Initially, single excipients were evaluated (Table 8).

M3 muscarinic receptor = M3 muscarinic receptor (Homo sapiens, UniProt P20309); assay: Muscarinic receptor radioligand displacement binding, M3
[2] = Concentration of benzyl atropine in surfactant mixtures; format: physicochemical
M1 muscarinic receptor = molecular target: T1, M1 muscarinic receptor (Homo sapiens, UniProt P11229); assay: Muscarinic receptor radioligand displacement binding, M1
T1 sequence (P11229 1-460): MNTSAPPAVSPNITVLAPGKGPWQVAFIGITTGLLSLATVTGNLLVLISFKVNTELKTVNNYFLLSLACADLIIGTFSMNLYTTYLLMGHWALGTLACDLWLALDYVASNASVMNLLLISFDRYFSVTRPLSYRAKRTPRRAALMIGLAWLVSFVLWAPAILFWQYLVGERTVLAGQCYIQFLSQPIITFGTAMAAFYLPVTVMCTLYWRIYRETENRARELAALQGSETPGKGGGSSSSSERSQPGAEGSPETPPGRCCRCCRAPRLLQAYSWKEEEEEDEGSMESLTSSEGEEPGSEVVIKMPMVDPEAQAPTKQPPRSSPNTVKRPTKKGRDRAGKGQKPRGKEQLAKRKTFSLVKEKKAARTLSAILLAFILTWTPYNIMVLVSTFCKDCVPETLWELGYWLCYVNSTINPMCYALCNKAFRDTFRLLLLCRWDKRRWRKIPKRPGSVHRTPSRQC

[3] = 0.3% Tyloxapol in Phosphate Buffer, pH 2.8
[4] = 2.0% Poloxamer 407 in Phosphate Buffer, pH 2.8
[5] = 4.0% Tween 80 in Phosphate Buffer, pH 2.9
[6] = 5.0% PEG-35 Castor Oil in Acetic Acid Buffer, pH 2.8
[7] = 5.0% PEG-35 Castor Oil in Phosphate Buffer, pH 2.8
[8] = 7.0% PEG0-40 Stearate in Phosphate Buffer, pH 3.0
[9] = 20% DMSO in Phosphate Buffer, pH 2.7
[10] = 50% Glycerol in Phosphate Buffer in Phosphate Buffer, pH 2.5
[11] = 50% Propylene Glycol in Phosphate Buffer, pH 2.9

Sequence of M3 muscarinic receptor (P20309 whole entry): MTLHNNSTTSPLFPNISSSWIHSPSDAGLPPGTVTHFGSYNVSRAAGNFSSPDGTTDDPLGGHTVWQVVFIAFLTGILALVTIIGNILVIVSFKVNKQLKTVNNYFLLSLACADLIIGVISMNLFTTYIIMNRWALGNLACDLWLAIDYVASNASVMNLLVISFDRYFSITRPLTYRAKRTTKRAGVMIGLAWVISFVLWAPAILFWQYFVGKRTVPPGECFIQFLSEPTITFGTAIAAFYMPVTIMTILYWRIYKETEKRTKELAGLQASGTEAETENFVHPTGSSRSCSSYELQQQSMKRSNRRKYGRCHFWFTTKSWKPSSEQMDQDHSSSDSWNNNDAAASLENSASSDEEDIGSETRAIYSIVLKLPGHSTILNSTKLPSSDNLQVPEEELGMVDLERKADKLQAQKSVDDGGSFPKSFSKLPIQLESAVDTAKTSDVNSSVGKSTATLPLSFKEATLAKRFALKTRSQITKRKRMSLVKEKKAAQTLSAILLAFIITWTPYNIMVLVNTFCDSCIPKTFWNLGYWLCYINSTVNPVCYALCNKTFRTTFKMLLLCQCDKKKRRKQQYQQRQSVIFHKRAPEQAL

Structure (SMILES): CN1C2CCC1CC(OC(=O)C(CO)(Cc1ccccc1)c1ccccc1)C2 (racemic) [Benzyl Atropine, benzyl atropine]
- Actual Concentration ([1]; 50% Propylene Glycol in 30 mM Phosphate Buffer, pH 7.4): 1.85 mg/g
- Actual Concentration ([1]; PEG-400 (neat)): 8.01 mg/g
- drug solubility ([1]; PEG-400 (neat)): 0.8%
- Actual Concentration ([1]; Polypropylene Glycol (neat)): 7.86 mg/g
- Actual Concentration ([1]; Propylene Glycol (neat)): 6.96 mg/g
- binding to the receptor (in words) (M3 muscarinic receptor): not to bind at all
- Actual Concentration [2, 3]: 0.19 mg/g
- pH after API Dissolution [2, 3]: 7.3
- Actual Concentration [2, 4]: 0.20 mg/g
- pH after API Dissolution [2, 4]: 7.4
- Actual Concentration [2, 5]: 0.58 mg/g
- pH after API Dissolution [2, 5]: 7.3
- Actual Concentration [2, 6]: 1.16 mg/g
- pH after API Dissolution [2, 6]: 3.1
- Actual Concentration [2, 7]: 0.68 mg/g
- pH after API Dissolution [2, 7]: 7.3
- Actual Concentration [2, 8]: 0.47 mg/g
- pH after API Dissolution [2, 8]: 7.4
- Actual Concentration [2, 9]: 0.30 mg/g
- pH after API Dissolution [2, 9]: 8.1
- Actual Concentration [2, 10]: 0.84 mg/g
- pH after API Dissolution [2, 10]: 7.6
- Actual Concentration [2, 11]: 1.56 mg/g
- pH after API Dissolution [2, 11]: 8.3
- Ki (M1 muscarinic receptor): 830 nM
- binding to the receptor (in words) (M1 muscarinic receptor): bind weakly
